The text below walks through data of US20100261694A1 (priority 2009, published 2010).

In assay [1] the test system is Physcomitrella patens gametophore cells. It counts as cell-based. The settings on record: for Tunicamycin induced cell death: moss, co-treatment 100 μM chaperone with 10 μg/ml tunicamycin, 72h.
The test system of assay [2] is Triticum aestivum leaf segments. The class given is cell-based. Particulars: for Tunicamycin induced cell death: wheat, co-treatment 100 μM chaperone with 10 μg/ml tunicamycin, 72h.
Assay [3] has as its system F. graminearum. It counts as in vivo, Fusarium graminearum. The settings on record: 100 μM chaperone; for Proliferation of F. graminearum on host tissue (GFP-tagged fungal cells, PCR): moss tissues; for Cell death markers (chlorosis, TUNEL-positive nuclei, Evans Blue staining, ROS induction) by the fungal pathogen: moss.
The subject of assay [4] is F. graminearum. The class given is in vivo, Fusarium graminearum. The settings on record: 100 μM chaperone; for Proliferation of F. graminearum on host tissue (GFP-tagged fungal cells, PCR): wheat tissues; for Cell death markers (chlorosis, TUNEL-positive nuclei, Evans Blue staining, ROS induction) by the fungal pathogen: wheat.
In the next assay the test system is Fusarium graminearum. It counts as in vivo. Particulars: 100 μM chaperone; 10 days postinoculation.
For assay [5], the system named is F. graminearum. It counts as cell-based, Fusarium graminearum. The settings on record: 100 μM; rich solid medium, no host.

Where two headings read alike, the source gives them in different places.

Consider Tunicamycin, for which the “Cell death (Evans Blue staining) compared to untreated control” value in assay [1] and in assay [2] was “more cell death” throughout.

For the molecule `C[C@H](CCC(=O)NCCS(=O)(=O)O)[C@H]1CC[C@H]2[C@@H]3[C@@H](O)C[C@@H]4C[C@H](O)CC[C@]4(C)[C@H]3CC[C@]12C` [TUDCA, tauroursodeoxycholic acid], the “Tunicamycin induced cell death” value in assay [1] and in assay [2] was “attenuated” throughout. For the same molecule, the “Proliferation of F. graminearum on host tissue (GFP-tagged fungal cells, PCR)” value with F. graminearum [3] and in the assay on F. graminearum [4] was “significantly suppress” in each case. The “Cell death markers (chlorosis, TUNEL-positive nuclei, Evans Blue staining, ROS induction) by the fungal pathogen” value in the assay on F. graminearum [3] and in the assay on F. graminearum [4] was “attenuated” each time. The “Fungal growth on inoculated wheat seeds” value in the assay with Fusarium graminearum is “suppression of fungal growth”. Further, the “Fungal growth and reproduction on solid growth medium” value in the assay with F. graminearum [5] is “did not affect fungal growth and reproduction”.

As to `O=C(O)CCCc1ccccc1` [PBA, 4-phenylbutyric acid], the “Tunicamycin induced cell death” value in assay [1] and in assay [2] was “attenuated” each time. The “Proliferation of F. graminearum on host tissue (GFP-tagged fungal cells, PCR)” value in the assay with F. graminearum [3] and with F. graminearum [4] was “significantly suppress” in each case. The “Cell death markers (chlorosis, TUNEL-positive nuclei, Evans Blue staining, ROS induction) by the fungal pathogen” value in the assay on F. graminearum [3] and in the assay on F. graminearum [4] was “attenuated” throughout. Also, the “Fungal growth on inoculated wheat seeds” value in the assay with Fusarium graminearum is listed as “suppression of fungal growth”. Besides, in the assay with F. graminearum [5], the “Fungal growth and reproduction on solid growth medium” value was “did not affect fungal growth and reproduction”.
